Data from ChEMBL document CHEMBL4043147, “9,19-Cycloartenol glycoside G3 from Cimicifuga simplex regulates immune responses by modulating Th17/Treg ratio” (Bioorg Med Chem, 2017).

How the values were obtained:
Settings in all cases: C57BL/6, CD4-positive T cell
[1] = Inhibition of C57BL/6 mouse CD4-positive T cell differentiation at 50 uM relative to control; format: functional
[2] = Inhibition of C57BL/6 mouse CD4-positive T cell differentiation at 25 uM relative to control; format: functional
[3] = Inhibition of C57BL/6 mouse CD4-positive T cell differentiation at 12.5 uM relative to control; format: functional
[4] = Inhibition of C57BL/6 mouse CD4-positive T cell differentiation at 6.25 uM relative to control; format: functional
[5] = Inhibition of C57BL/6 mouse CD4-positive T cell differentiation; format: functional, cell-based

For `CC(=O)O[C@H]([C@H]1C[C@@H](C)C2=C(O1)[C@@H](O)[C@@]1(C)C3=CC[C@H]4C(C)(C)[C@@H](O[C@@H]5O[C@H](CO)[C@H](O)[C@H](O)[C@H]5O)CC[C@@]45C[C@@]35CC[C@]21C)C(C)(C)O`, the inhibition at 50 µM [1] was 96.6%, the inhibition at 25 µM [2] was 92.1% and the inhibition at 12.5 µM [3] was 54.3%. For the same molecule, the inhibition at 6.25 µM [4] was 21.6% and the IC50 [5] was 12.6 µM.

For `C[C@@H]1C[C@H]([C@@H](O)C(C)(C)O)O[C@]2(O)[C@@H](O)[C@@]3(C)C4=CC[C@H]5C(C)(C)[C@@H](O[C@@H]6O[C@H](CO)[C@H](O)[C@H](O)[C@H]6O)CC[C@@]56C[C@@]46CC[C@]3(C)[C@@H]12`, the inhibition at 50 µM [1] was 99.6%, the inhibition at 25 µM [2] was 74.1% and the inhibition at 12.5 µM [3] was 51.5%. For the same molecule, the inhibition at 6.25 µM [4] was 10.3% and the IC50 [5] was 18.3 µM.

In the case of `CC(=O)O[C@@H]1C[C@@]23C[C@@]24CC[C@H](O[C@@H]2O[C@H](CO)[C@H](O)[C@H](O)[C@H]2O)C(C)(C)[C@@H]4CC=C3[C@]2(C)C[C@@]3(O)O[C@H](C(=O)[C@H]4OC4(C)C)[C@@H](C)[C@@H]3[C@@]12C`, the inhibition at 50 µM [1] is reported as 98.6%, the inhibition at 25 µM [2] is reported as 68.3% and the inhibition at 12.5 µM [3] is reported as 52.4%. For the same molecule, the inhibition at 6.25 µM [4] was 8.9% and the IC50 [5] was 14.3 µM.
